Article PMC4222822, “Discovery and Characterization of a Potent and Selective Inhibitor of Aedes aegypti Inward Rectifier Potassium Channels” (PLoS ONE, 2014)

Target: AeKir1 (Aedes aegypti, UniProt L0EQS9)
Experiment: Two-electrode electrophysiology of Xenopus oocytes expressing AeKir1
Assay type: cell-based
Conditions: inward current at −140 mV, 95% CI: 2.3–6.3 µM, n = 4–5 oocytes per concentration, read-out: IC50 of AeKir1 current inhibition
Method: AeKir1 and AeKir2B channels were expressed heterologously in Xenopus laevis oocytes as described previously. In brief, defolliculated Xenopus oocytes (purchased from Ecocyte Bioscience, Austin, TX) were injected with 10 ng (0.35 ng/nL) of either AeKir1 or AeKir2B cRNA and cultured for 3–7 days in OR3 media at 18°C. Oocytes injected with 28 nl of nuclease-free H2O served as controls.
All electrophysiological experiments on Xenopus oocytes were performed at room temperature. When present, VU625 was dissolved in solution III or solution V to a final concentration of 0.1, 1, 5, 15, or 50 µM (0.05% DMSO). All solutions were delivered by gravity to a RC-3Z oocyte chamber (Warner Instruments, Hamden, CT) via polyethylene tubing at a flow rate of ∼2 ml/min. Solution changes were made with a Rheodyne Teflon 8-way Rotary valve (Model 5012, Rheodyne, Rohnert Park, CA).
Electrophysiological recordings from oocytes were conducted as described previously In brief, each oocyte was transferred to the holding chamber under superfusion with solution I and impaled with two conventional-glass microelectrodes backfilled with 3 M KCl (resistances of 0.5–1.5 MΩ) to measure membrane potential (Vm) and whole-cell membrane current (Im), respectively. […] All Vm and Im values were recorded by a Digidata 1440A Data Acquisition System (Molecular Devices) and the Clampex module of pCLAMP. […]

AeKir1, sequence (L0EQS9 entry or part of it): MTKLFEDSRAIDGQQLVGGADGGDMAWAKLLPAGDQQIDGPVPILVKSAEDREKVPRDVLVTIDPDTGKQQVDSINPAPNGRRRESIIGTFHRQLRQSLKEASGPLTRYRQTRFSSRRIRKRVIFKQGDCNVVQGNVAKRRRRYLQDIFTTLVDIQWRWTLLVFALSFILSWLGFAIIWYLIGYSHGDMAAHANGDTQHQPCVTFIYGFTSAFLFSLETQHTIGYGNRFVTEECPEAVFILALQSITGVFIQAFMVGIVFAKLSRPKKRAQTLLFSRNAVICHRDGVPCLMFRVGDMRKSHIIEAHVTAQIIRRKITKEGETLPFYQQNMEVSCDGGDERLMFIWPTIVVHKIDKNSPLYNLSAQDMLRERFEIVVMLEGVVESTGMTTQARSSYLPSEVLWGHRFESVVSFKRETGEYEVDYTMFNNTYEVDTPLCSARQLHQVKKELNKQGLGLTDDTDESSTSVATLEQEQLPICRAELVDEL

## CCC(=O)N1c2ccc(S(=O)(=O)Nc3cccc(OC)c3)cc2CC1C (stereo not shown) [VU625, N-(3-methoxyphenyl)-2-methyl-1-propionylindoline-5-sulfonamide]
  IC50: 3.8 µM
